Experiments:
plasma ATX/LysoPLD = molecular target: T1, plasma ATX/LysoPLD (Mus musculus, UniProt Q9R1E6); assay: Plasma ATX/lysoPLD activity ex vivo (TOOS assay, exogenous LPC); type: biochemical; conditions: for IC50: TOOS
T1 construct: from tissue; host or cells: mouse plasma / whole blood
Experimental: (§1) ATX/LysoPLD activity was assessed based on the amount of choline released from LPC with the use of TOOS (N-ethyl-N-(2-hydoroxy-3-sulfopropyl)-3-methylaniline) reagent. In this assay ATX-mediated LPC-liberated choline is oxidised by choline oxidase to betaine and hydrogen peroxide (H2O2). The latter in the presence of horseradish peroxidase reacts with TOOS and 4-aminoantipyrene (4-AAP) to form a pink quinoneimine dye measured at 555 nm.
Diluted plasma samples (100 fold dilution; final EDTA concentration 0.5 mM) or recombinant ATX protein (2 nM) were incubated with LPC in the presence of 100 mmol/l Tris–HCl/pH 9.0, 500 mmol/l NaCl, 5 mmol/l MgCl2, 5 mmol/l CaCl2, 60 μM CoCl2 and 0.05% Triton X-100 for 3 h at 37°C at a final volume of 100 μl. It should be noted that EDTA was used not only as an anticoagulant but also as an inhibitor of ATX activity ex vivo [46], in order to suppress artificial LPA production during blood withdrawal and plasma preparation; this is because the same samples were used in phospholipid measurements.
(§2) The liberated choline was detected by adding 100 μl of a color mix containing 4-AAP and TOOS (0.3 mM), horseradish peroxidase (5.3 UnitmL^−1) and choline oxidase (2 UnitmL^−1). Absorbance was measured at 555 nm and data were analyzed using the statistical software package Prism 4.0 (Graphpad Software Inc, La Jolla, CA, USA). For each sample and control the absorbance was plotted against time and the slope (da/min) for the linear (steady-state) portion of each reaction profile was calculated. Absorbance units were converted to nmol of choline/min/ml by comparison with a choline standard curve or by use of the extinction coefficient for the quinoneimine dye according to the following equation: [drawing 1] Where Vt* is the total volume of reaction in ml (0.2 ml); Vs* is the volume of sample in ml; e is the millimolar extinction coefficient of quinoneimine dye under the assay conditions (e = e = 32.8 μmol/cm^2); and 1/2: Factor based on the fact that 1 mol of hydrogen peroxide produces 1/2 mol of quinoneimine dye.
For in vitro inhibition measurements, BrP-LPA was dissolved in water as a stock solution (4 mM) and appropriate dilutions were made in water. The inhibition of ATX by BrP-LPA was measured employing 2 nM recombinant ATX, 50 μΜ LPC (14:0, 16:0, 18:0) and 0.01 to 100 μmol/L of BrP-LPA (final concentrations). The in vitro inhibition of ATX by BrP-LPA was evaluated with three different assays (FS-3, Amplex Red, and TOOS). […] BrP-LPA was also tested for its ability to inhibit mouse plasma ATX activity. Diluted mouse plasma was used as the source of ATX and the analysis of inhibition was made with TOOS as the in vitro inhibition assay.
The inhibition model (competitive, noncompetitive, or mixed type inhibition) was evaluated by graphical analysis with Lineweaver–Burk double reciprocal plots (1/[velocity] versus 1/[substrate]) and Cornish-Bowden plot ([substrate]/[velocity] versus [Inhibitor]). These plots were generated by the measurement of ATX activity in the presence of different BrP-LPA concentrations (0–10 μΜ) and increased amounts of 16:0 LPC (100, 200, 400 μΜ). The inhibition constants (Ki) and IC50 values were determined using the mean values obtained from two independent experiments. The relative remaining ATX activity or LPA levels in the presence of the BrP-LPA was expressed as a percentage of the corresponding control value (ATX activity, LPA levels without inhibitor). The IC50 value was determined graphically by plotting the log concentration of BrP-LPA versus relative remaining ATX activity or LPA levels of each test sample using the sigmoid dose–response fitting method (Prism® software). The IC50 (concentration of BrP-LPA sufficient to inhibit ATX activity or diminish LPA levels by 50%) was calculated by the equation f = y0+a/(1+exp(-(x-x0)/b)) given by SigmaPlot 11.0 (Systat Software, Inc., San Jose, CA, USA).

[1] = molecular target: T2, endogenous ATX/lysoPLD activity in whole blood (Mus musculus, UniProt Q9R1E6); assay: Inhibition of ATX activity in whole blood ex vivo (TOOS assay); type: biochemical; conditions: 2 h 37°C, TOOS with 1 mM LPC
T2 construct: from tissue; host or cells: mouse plasma / whole blood
Experimental: as §1, with “nm. […]” for “nm.”
as §2, with “Where Vt* is the total volume of reaction in ml (0.2 ml); Vs* is the volume of sample in ml; e is the millimolar extinction coefficient of quinoneimine dye under the assay conditions (e = e = 32.8 μmol/cm^2); and 1/2: Factor based on the fact that 1 mol of hydrogen peroxide produces 1/2 mol of quinoneimine dye.” left out
Venous blood from wild type mouse was collected in EDTA tubes. […] IC50 values using ATX activity and LPA levels were determined graphically as described above.

LPA2 = conditions: Ca++ mobilization, RH7777 cells; kind of constant not given; read-out: inhibition of LPA2; cited from earlier work
LPA4 = conditions: Ca++ mobilization, CHO cells; kind of constant not given; read-out: inhibition of LPA4; cited from earlier work
[2] = test system: transformed NIH3T3 cells expressing ras and ATX; parameters: method as in PMID 18454946; conditions: cited from earlier work
[3] = test system: human colon cancer cells (HCT-116); parameters: method as in earlier work; conditions: HCT-116, in vitro; cited from earlier work

SMILES: CCCCCCCCCCCCCCCC(=O)OC[C@@H](O)CC(Br)P(=O)(O)O (stereo partly drawn) [BrP-LPA, 1-bromo-3(S)-hydroxy-4-(palmitoyloxy)butyl-phosphonate]
- % Inhibition at 10 μΜ (plasma ATX/LysoPLD; 14:0 LPC 50 μΜ): 28%
- % Inhibition at 10 μΜ (plasma ATX/LysoPLD; 16:0 LPC 50 μΜ): 58%
- % Inhibition at 10 μΜ (plasma ATX/LysoPLD; 18:0 LPC 50 μΜ): 70%
- IC50 (plasma ATX/LysoPLD; exogenous 14:0 LPC 50 μΜ): > 10 µM
- IC50 (plasma ATX/LysoPLD; exogenous 16:0 LPC 50 μΜ): 2.9 ± 0.3 µM
- IC50 (plasma ATX/LysoPLD; exogenous 18:0 LPC 50 μΜ): < 0.1 µM
- IC50 [1]: 0.6 µM
- IC50 (LPA2): 1.4 µM
- IC50 (LPA4): 0.27 µM
- decrease of chemotaxis [2]: 23%
- proliferation, migration and invasion [3]: reduce human colon cancer cells (HCT-116) proliferation, migration and invasion in vitro

Reference: PMC3726599, “A Metabolically-Stabilized Phosphonate Analog of Lysophosphatidic Acid Attenuates Collagen-Induced Arthritis” (PLoS ONE, 2013)
